Test results reported in patent US4798844A, “Chemotherapeutant composition” (Shikoku Chemicals Corporation, priority 1987, dated 1989).
Structures can show the parent of a compound that is named as a salt.

Key:
Aspergillus fumigatus = assay: Antimicrobial activity to pathogenic true fungi (MIC); format: cell-based; settings: Sabourauds agar medium, 25° C., 7 to 14 days
Experimental: (§1) A true fungus shown in Table 1 was cultured in Sabourauds agar medium at 25° C. for 7 to 14 days, and the minimum inhibitory concentration (MIC value, μg/ml) was determined.

Aspergillus niger = assay: as above; format: cell-based; settings: Sabourauds agar medium, 25° C., 7 to 14 days
Experimental: as §1

Candida albicans [1] = assay: as above; format: cell-based; settings: Sabourauds agar medium, 25° C., 7 to 14 days
Experimental: as §1

Microsporum gypseum = assay: as above; format: cell-based; settings: Nannizzia gypsea; Sabourauds agar medium, 25° C., 7 to 14 days
Experimental: as §1

[2] = system: Trichophyton mentagrophytes; assay: as above; format: cell-based; settings: Sabourauds agar medium, 25° C., 7 to 14 days
Experimental: as §1

Trichophyton rubrum = assay: as above; format: cell-based; settings: Sabourauds agar medium, 25° C., 7 to 14 days
Experimental: as §1

Trichophyton tonsurans = assay: as above; format: cell-based; settings: Sabourauds agar medium, 25° C., 7 to 14 days
Experimental: as §1

Bacillus subtilis = assay: Antimicrobial activity to pathogenic bacteria (MIC, agar plate dilution); format: cell-based; settings: Japanese Chemotherapeutic Association
Experimental: (§2) The minimum inhibitory concentrations to pathogenic bacteria shown in Table 2 were determined by the agar plate dilution process according to the standard method of the Japanese Chemotherapeutic Association.

Staphylococcus aureus = assay: as above; format: cell-based; settings: Japanese Chemotherapeutic Association
Experimental: as §2

Streptococcus faecalis = assay: as above; format: cell-based; settings: Enterococcus faecalis, Japanese Chemotherapeutic Association
Experimental: as §2

Streptococcus pyogenes = assay: as above; format: cell-based; settings: Japanese Chemotherapeutic Association
Experimental: as §2

[3] = Migration in blood after oral administration; format: in vivo; settings: rat, oral 300 mg/kg; for Concentration in Blood: gum arabic suspension, compound bonded with small blood protein (fraction MW 10,000)
Experimental: The compound obtained in Example 1 was orally administered at a dose of 300 mg/kg in the form of a suspension in gum arabic to a rat, and the change of the concentration in blood was examined by the high-speed liquid chromatography.
Each value is the concentration of the compound bonded with a blood protein having a small molecular weight (fraction molecular weight=10,000).

Candida albicans [4] = assay: Curative effect to candidiasis; format: in vivo, mouse; settings: after two days; for Survival Ratio: 1.4 hours after infection, control 0/3
Experimental: A mouse was infected with Candida albicans, and when 1.4 hours had passed from the infection, the compound obtained in Example 1 was orally administered in the form of a suspension in gum arabic. After two days, the pharmaceutical effect was examined.

[5] = system: Trichophyton mentagrophytes; assay: Curative effect to trichophytosis; format: in vivo, guinea pig; settings: for Number of Colonies in Skin Pieces after 3 days' stoppage of administration: 10 days, then 3 days stopped, control 3.4 × 10^3; for Number of Colonies in Skin Pieces after 10 days' administration: control 4.1 × 10^3
Excerpt: A guinea pig was skin-infected with Trichophyton mentagrophytes, and after two days had passed from the infection, the compound obtained in Example 1 was orally administered in the form of a suspension in gum arabic once a day for 10 days and the pharmaceutical effect was examined. Then, the administraion of the compound was stopped for 3 days and the recovery state was examined.

[6] = Acute toxicity (oral LD50); format: in vivo; settings: mouse, in vivo, po, LD50 Value
Excerpt: (§3) It is seen that the actue toxicity of the compound is very low.

mouse = assay: Acute toxicity (oral LD50); format: in vivo
Excerpt: as §3

skin = assay: Primary irritation to skin; format: in vivo, rabbit
Excerpt: It is seen that the compound is a non-irritating substance.

O=C(C(=Cc1ccc(Cl)cc1Cl)n1ccnc1)c1ccc(Cl)cc1 [Example 1, 1-(4-chlorophenyl)-2-(1H-imidazolyl)-3-(2,4-dichlorophenyl)-2-propen-1-onehydrochloride]
MIC (Aspergillus fumigatus): 3.12 µg/mL
MIC (Aspergillus niger): 3.12 µg/mL
MIC (Candida albicans [1]): < 6.25 µg/mL
MIC (Microsporum gypseum): < 1.25 µg/mL
MIC [2]: < 1.25 µg/mL
MIC (Trichophyton rubrum): < 1.25 µg/mL
MIC (Trichophyton tonsurans): < 1.25 µg/mL
MIC (Bacillus subtilis): 3.12 µg/mL
MIC (Staphylococcus aureus): 1.56 µg/mL
MIC (Streptococcus faecalis): 3.12 µg/mL
MIC (Streptococcus pyogenes): 3.12 µg/mL
Concentration in Blood ([3]; 0 hours): 0 ng/mL
Concentration in Blood ([3]; 2 hours): 1200 ng/mL
Concentration in Blood ([3]; 4 hours): 2970 ng/mL
Concentration in Blood ([3]; 6 hours): 9070 ng/mL
Concentration in Blood ([3]; 8 hours): 4260 ng/mL
Concentration in Blood ([3]; 12 hours): 5620 ng/mL
Concentration in Blood ([3]; 24 hours): 1500 ng/mL
time to maximum concentration in blood ([3]; suspension in gum arabic): within several hours
Survival Ratio (Candida albicans [4]; 50 mg/kg oral): 1/3
Number of Living Cells in Kidney of Survivor Mouse (Candida albicans [4]; 50 mg/kg oral): substantially annihilated
Survival Ratio (Candida albicans [4]; 100 mg/kg oral): 2/3
Number of Colonies in Skin Pieces after 3 days' stoppage of administration ([5]; 50 mg/kg oral once a day): annihilated
Number of Colonies in Skin Pieces after 10 days' administration ([5]; 50 mg/kg oral once a day): annihilated
Number of Colonies in Skin Pieces after 3 days' stoppage of administration ([5]; 100 mg/kg oral once a day): annihilated
Number of Colonies in Skin Pieces after 10 days' administration ([5]; 100 mg/kg oral once a day): annihilated
LD50 [6]: 2950 mg/kg
LD50 Value (mouse; in vivo, po): 3100 mg/kg
acute toxicity (mouse; oral, in words): very low
primary irritation to skin (skin; in words): non-irritating
Primary Irritation Ratio (skin; rabbit, coating concentration 100%): 0.72
